Experimental data reported in PubChem BioAssay AID588626 (NMMLSC, 2011).
pEC50: −log10 of the molar value. Active and inactive are the calls of the source.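 The calls were made as follows: active = half-effect potency at or under 10 µM with a response span of at least 30% after curve fit checks such as Hill slope 0.5 to 2; inactive = the rest.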

Molecular target: Cell division control protein 42 homolog (Homo sapiens) (UniProt P60953)
Assay: inhibitors of wildtype Cdc42 GTP binding, SAR follow-up, biochemical, bead multiplex, flow cytometry, round 2 (AID 588626)
Settings: Bead-based flow cytometry, Bodipy-FL-GTP binding, EDTA buffer

Cell division control protein 42 homolog (Homo sapiens), sequence (P60953 whole entry, looked up): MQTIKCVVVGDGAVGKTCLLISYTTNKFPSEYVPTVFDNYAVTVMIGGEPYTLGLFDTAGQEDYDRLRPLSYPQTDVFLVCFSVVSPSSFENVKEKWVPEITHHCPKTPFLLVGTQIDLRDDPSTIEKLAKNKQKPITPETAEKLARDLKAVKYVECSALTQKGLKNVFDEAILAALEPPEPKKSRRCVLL

SMILES	pEC50
Cc1ccc(C(=O)NC(=S)Nc2sc3c(c2C(=O)O)CC(C)(C)OC3)cc1	6.28
CC1Cc2c(sc(NC(=S)NC(=O)c3ccccc3)c2C(=O)O)CO1 (stereo not drawn)	4.75
CC1(C)Cc2c(sc(NC(=S)NC(=O)c3ccccc3F)c2C(=O)O)CO1	5.13
CC1(C)Cc2c(sc(NC(=S)NC(=O)C3CCCCC3)c2C(=O)O)CO1	5.58
Cc1cccc(C(=O)NC(=S)Nc2sc3c(c2C(=O)O)CC(C)(C)OC3)c1	5.23
Cc1ccccc1C(=O)NC(=S)Nc1sc2c(c1C(=O)O)CC(C)(C)OC2	5.57
CC(C)(C)C1Cc2c(sc(NC(=S)NC(=O)c3ccccc3)c2C(=O)O)CO1 (stereo not drawn)	5.80
CC1(C)Cc2c(sc(NC(=S)NC(=O)c3cccc(Br)c3)c2C(=O)O)CO1	4.71

Same assay, conditions: Bead-based flow cytometry, Bodipy-FL-GTP binding, EDTA buffer; at 100 µM (top of the series)

SMILES	% response (GTP binding remaining)
CC1(C)Cc2c(sc(NC(=S)NC(=O)c3cccc(F)c3)c2C(=O)O)CO1	inactive
CC1(C)Cc2c(sc(NC(=S)NC(=O)c3ccccc3Br)c2C(=O)O)CO1	inactive
CC1(C)Cc2c(sc(NC(=S)NC(=O)c3ccc(F)cc3)c2C(=O)O)CO1	inactive
COc1cccc(C(=O)NC(=S)Nc2sc3c(c2C(=O)O)CC(C)(C)OC3)c1	inactive
COc1ccc(C(=O)NC(=S)Nc2sc3c(c2C(=O)O)CC(C)(C)OC3)cc1	inactive
CC1(C)Cc2c(sc(NC(=S)NC(=O)c3ccco3)c2C(=O)O)CO1	inactive
COc1ccccc1C(=O)NC(=S)Nc1sc2c(c1C(=O)O)CC(C)(C)OC2	inactive
CC1(C)Cc2c(sc(NC(=O)NC(=O)c3ccccc3)c2C(=O)O)CO1	inactive
CC1(C)Cc2c(sc(NC(=S)Nc3ccccc3)c2C(=O)O)CO1	inactive
O=C(NC(=S)Nc1sc2c(c1C(=O)O)CC1(CCCC1)OC2)c1ccccc1	inactive
CC1(C)CCc2sc(NC(=S)NC(=O)c3ccccc3)c(C(=O)O)c2C1	inactive
CCC1(C)Cc2c(sc(NC(=S)NC(=O)c3ccccc3)c2C(=O)O)CO1 (stereo not drawn)	inactive
CC1(C)Cc2c(sc(NC(=S)NC(=O)c3cccs3)c2C(=O)O)CO1	inactive
CC1(C)Cc2c(sc(NC(=S)NC(=O)c3ccc(Br)cc3)c2C(=O)O)CO1	inactive
O=C(NC(=S)Nc1sc2c(c1C(=O)O)CCOC2)c1ccccc1	inactive
